In patent US9744160B2, “Pharmaceutical compositions comprising sulbactam and beta-lactamase inhibitor” (WOCKHARDT LIMITED, priority 2011, dated 2017):

Tested on: A. baumanii 13305
Experiment: MIC by agar dilution (CLSI)
Assay type: cell-based
Description: In a typical study, overnight grown bacterial cultures were diluted appropriately and inoculated on the agar media containing doubling dilutions of composition or pharmaceutically active ingredients disclosed herein. Observation for growth or no growth was performed after 16-20 hours of incubation at 35±2° C. in ambient air. The overall procedure was performed as per Clinical and Laboratory Standards Institute (CLSI) recommendations (Clinical and Laboratory Standards Institute (CLSI), performance Standards for Antimicrobial Susceptibility Testing, 20th Informational Supplement, M 100-S20, Volume 30, No. 1, 2010).

CO/N=C(\C(=O)N[C@@H]1C(=O)N2C(C(=O)[O-])=C(C[N+]3(C)CCCC3)CS[C@H]12)c1csc(N)n1 [Cefepime]
MIC of cefepime in presence of Sulbactam (4 to 8 mcg/ml): 4 µg/mL
